Test results from PubChem BioAssay AID2060483 (Molecular Pharmacology Branch, DTP, NCI, 2025).
Where “and” joins values, the source holds several entries; their conditions need not be identical. Equal values may be shown once.

Tested on: K24384-001-R-PDC complex spheroids, viability
Test: Anticancer human tumor K24384-001-R-PDC patient-derived pancreatic adenocarcinoma cell line growth inhibition [GQUAD]
Conditions: for viability, T/C: stronger effect = lower value; active = viability on the fitted dose curve at most 10% of control; inactive = the rest
Source text: DNA G-quadruplex Stabilizer Agents in Combinations in Complex Spheroids
A high-throughput screen of multi-cell type tumor spheroids was designed to identify active combinations of DNA G-quadruplex stabilizer agents and targeted small molecules. Complex spheroids include a stromal component modeled by human endothelial cells (HUVEC) and fibroblasts modeled by human mesenchymal stem cells (MSCs). The concentration ranges selected for each drug and investigational agent were based upon clinically achievable concentrations if the clinical Cmax of the agent was known.
Compounds. The drugs and investigational agents: pidnarulex (CX-5461; NSC782164), APTO-253 (NSC789042), BRACO-19 (NSC847499), peposertib (NSC802822), ceralasertib (NSC780249), elimusertib (NSC800525), camonsertib (NSC841442), AZD-1390 (NSC803789), olaparib (NSC753686), talazoparib (NSC767125), ART-558 (NSC835418), sotorasib (NSC818433), MRTX-1133 (NSC836407), SN-38 (NSC673596), topotecan (NSC609699), etoposide (NSC141540), doxorubicin (NSC123127), gemcitabine (NSC613327), 5-fluorouracil (NSC19893), paclitaxel (NSC125973), vemurafenib (NSC761431), panobinostat (NSC761190), R-306465 (JNJ-16241199; NSC773264), adavosertib (NSC754352), TP-3654 (NSC805149), carboplatin (NSC241240), KSQ-4279 (NSC840948), and staurosporine (NSC755774) were obtained from the National Cancer Institute (NCI) Developmental Therapeutics Program Chemical Repository (34). The FDA-approved anticancer drug set is available from the NCI Developmental Therapeutics Program. […] The stock solutions were prepared in dimethyl sulfoxide (DMSO, Sigma-Aldrich, St. Louis, MO, cat. D2650) at 800-fold the tested concentration and stored at -70 degrees C prior to their use. All drugs and investigational agents were tested over a range starting from a high concentration at or near the clinical Cmax and decreasing in half-log increments. If the clinical Cmax for an agent had not been determined, the highest concentration tested was 10 microM.
2.3 Cell Culture. All cells were maintained in an incubator at 37 degrees C and 5% CO2 with 95% humidity. The PDC lines were cultured according to standard operating procedures established by the NCI PDMR. All PDCs were thawed and cultured in Matrigel-coated flasks prepared with a working solution of 1X Ham's F-12 nutrient mix, without supplementation (Invitrogen, cat. 11765054), 100 U/mL penicillin-streptomycin (Invitrogen, cat. 15140122), and 2.5% Matrigel (Corning Inc., cat. 354248) for the first three passages. The 857933-349-R-J2-PDC line was cultured in 6C/Colon 1B media, which includes advanced DMEM/F-12 (Thermo Fisher Scientific, cat. 12634028), 10 mM HEPES (Thermo Fisher Scientific, cat. 15630080), 1X GlutaMAX supplement (Thermo Fisher Scientific, cat. 35050061), 0.1 mg/mL primocin (InvivoGen, cat. ant-pm-2), 10% defined fetal bovine serum, heat inactivated (HyClone Laboratories Inc., cat. SH30070.03HI), 50% L-WRN conditioned media (ATCC, cat. CRL-3276), 1.25 mM N-Acetyl-L-cysteine (Sigma-Aldrich, cat. A9165), 10 mM nicotinamide (Sigma-Aldrich, cat. N0636), 1X B-27 supplement (Thermo Fisher Scientific, cat. 17504044), 1X N-2 supplement (Thermo Fisher Scientific, cat. 17502048), 10 microM Y-27632 dihydrochloride (Tocris Bioscience, cat. 1254), and 50 ng/mL human EGF recombinant protein (Thermo Fisher Scientific, cat. PHG0311). The 485176-168-R4-J1-PDC line was cultured in Panc media, which includes all 6C/Colon 1B media components plus 100 ng/mL human FGF-10 (Thermo Fisher Scientific, cat. 100-26), 500 nM SB-431542 (Selleckchem, cat. S1067), and gastrin (Tocris, cat. 3006).
[…]
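Also: spheroids exposed to compounds for seven days.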

CC[C@@]1(O)C(=O)OCc2c1cc1n(c2=O)Cc2cc3c(CN(C)C)c(O)ccc3nc2-1
inactive: viability, T/C (compound 0.000999 µM) 103% and 111% and 108% | viability, T/C (compound 0.00316 µM) 83.2% and 92.2% and 77.5% | viability, T/C (compound 0.00999 µM) 97.7% and 100% and 114% | viability, T/C (compound 0.0316 µM) 82.8% and 82.3% and 80.1% | viability, T/C (compound 0.0999 µM) 66.6% and 50.2% and 63.6% | viability, T/C (compound 0.316 µM) 53% and 58.5% and 51.3%
> 0.316 µM: IC50 (curve of compound)

CN(C)c1ccc(Nc2c3ccc(NC(=O)CCN4CCCC4)cc3nc3cc(NC(=O)CCN4CCCC4)ccc23)cc1
inactive: viability, T/C (compound 0.0316 µM) 101% [middle of 12 runs] | viability, T/C (compound 0.1 µM) 100% [middle of 12 runs] | viability, T/C (compound 0.316 µM) 101% [middle of 12 runs]
> 10 µM: IC50 (compound alone, run of 02/26/2024)

O=C(c1cc(Cc2n[nH]c(=O)c3ccccc23)ccc1F)N1CCN(C(=O)C2CC2)CC1 + CN(C)c1ccc(Nc2c3ccc(NC(=O)CCN4CCCC4)cc3nc3cc(NC(=O)CCN4CCCC4)ccc23)cc1
inactive: viability, T/C (second compound 0.0316 µM, first compound 0.0316 µM) 91.5% | viability, T/C (second compound 0.0316 µM, first compound 0.1 µM) 87.2% | viability, T/C (second compound 0.0316 µM, first compound 0.316 µM) 103% | viability, T/C (second compound 0.0316 µM, first compound 1 µM) 85.3% | viability, T/C (second compound 0.0316 µM, first compound 3.16 µM) 94% | viability, T/C (second compound 0.0316 µM, first compound 10 µM) 65.3% | viability, T/C (second compound 0.1 µM, first compound 0.0316 µM) 98.4% | viability, T/C (second compound 0.1 µM, first compound 0.1 µM) 97% | viability, T/C (second compound 0.1 µM, first compound 0.316 µM) 102% | viability, T/C (second compound 0.1 µM, first compound 1 µM) 82.5% | viability, T/C (second compound 0.1 µM, first compound 3.16 µM) 78.7% | viability, T/C (second compound 0.1 µM, first compound 10 µM) 76.3% | viability, T/C (second compound 0.316 µM, first compound 0.0316 µM) 82.2% | viability, T/C (second compound 0.316 µM, first compound 0.1 µM) 90.1% | viability, T/C (second compound 0.316 µM, first compound 0.316 µM) 102% | viability, T/C (second compound 0.316 µM, first compound 1 µM) 81.2% | viability, T/C (second compound 0.316 µM, first compound 3.16 µM) 87.8% | viability, T/C (second compound 0.316 µM, first compound 10 µM) 72.2% | viability, T/C (second compound 1 µM, first compound 0.0316 µM) 85.3% | viability, T/C (second compound 1 µM, first compound 0.1 µM) 103% | viability, T/C (second compound 1 µM, first compound 0.316 µM) 97.1% | viability, T/C (second compound 1 µM, first compound 1 µM) 108% | viability, T/C (second compound 1 µM, first compound 3.16 µM) 92.9% | viability, T/C (second compound 1 µM, first compound 10 µM) 71.2% | viability, T/C (second compound 3.16 µM, first compound 0.0316 µM) 89.5% | viability, T/C (second compound 3.16 µM, first compound 0.1 µM) 90.6% | viability, T/C (second compound 3.16 µM, first compound 0.316 µM) 92% | viability, T/C (second compound 3.16 µM, first compound 1 µM) 100% | viability, T/C (second compound 3.16 µM, first compound 3.16 µM) 86.5% | viability, T/C (second compound 3.16 µM, first compound 10 µM) 62.2% | viability, T/C (second compound 10 µM, first compound 0.0316 µM) 86.4% | viability, T/C (second compound 10 µM, first compound 0.1 µM) 89.5% | viability, T/C (second compound 10 µM, first compound 0.316 µM) 94.6% | viability, T/C (second compound 10 µM, first compound 1 µM) 91.2% | viability, T/C (second compound 10 µM, first compound 3.16 µM) 86.2% | viability, T/C (second compound 10 µM, first compound 10 µM) 61.4%
> 10 µM: IC50 (curve of first compound, second compound 0.0316 µM) | IC50 (curve of first compound, second compound 0.1 µM) | IC50 (curve of first compound, second compound 0.316 µM) | IC50 (curve of first compound, second compound 1 µM) | IC50 (curve of first compound, second compound 3.16 µM) | IC50 (curve of first compound, second compound 10 µM)

COc1ncnc(C2CC2)c1-c1ncc2cnn(Cc3ccc(-c4nc(C(F)(F)F)cn4C(C)C)cc3)c2n1
inactive: viability, T/C (compound 0.0316 µM) 90.9% and 94.8% and 89.7% | viability, T/C (compound 0.1 µM) 101% and 104% and 81.5% | viability, T/C (compound 0.316 µM) 100% and 102% and 101% | viability, T/C (compound 1 µM) 75.5% and 96.3% and 84.7% | viability, T/C (compound 3.16 µM) 109% and 103% and 87.2% | viability, T/C (compound 10 µM) 96.1% and 110% and 99.2%
> 10 µM: IC50 (curve of compound)

CC1COCCN1c1cc(-c2ccnn2C)c2ccnc(-c3ccn[nH]3)c2n1 (stereo unspecified)
0.109 µM and 0.0827 µM and 0.141 µM: IC50 (curve of compound)
inactive: viability, T/C (compound 0.0316 µM) 85.2% and 75.3% and 76.9% | viability, T/C (compound 0.1 µM) 49.8% and 45% and 54.3% | viability, T/C (compound 0.316 µM) 41.3% and 28.3% and 40.7% | viability, T/C (compound 1 µM) 37.1% and 26.5% and 29.7% | viability, T/C (compound 3.16 µM) 38.4% and 30.4% and 33.3% | viability, T/C (compound 10 µM) 31.8% and 32.7% and 33.8%

C=CC(=O)N1CCN(c2nc(=O)n(-c3c(C)ccnc3C(C)C)c3nc(-c4c(O)cccc4F)c(F)cc23)C(C)C1 (stereo unspecified)
inactive: viability, T/C (compound 0.0316 µM) 110% and 115% and 96.6% | viability, T/C (compound 0.1 µM) 95.3% and 80% and 113% | viability, T/C (compound 0.316 µM) 105% and 99.4% and 119% | viability, T/C (compound 1 µM) 91.2% and 103% and 99.1% | viability, T/C (compound 3.16 µM) 104% and 116% and 106% | viability, T/C (compound 10 µM) 93% and 80.7% and 94.2%
> 10 µM: IC50 (curve of compound)

Cc1cnc(CNC(=O)c2c(=O)c3ccc(N4CCCN(C)CC4)nc3n3c2sc2ccccc23)cn1
inactive: viability, T/C (compound 0.0316 µM) 82.8% [middle of 12 runs] | viability, T/C (compound 0.1 µM) 66.4% [middle of 12 runs] | viability, T/C (compound 0.316 µM) 50.4% [middle of 12 runs] | viability, T/C (compound 1 µM) 44.4% [middle of 12 runs] | viability, T/C (compound 3.16 µM) 34.6% [middle of 12 runs]

COc1cccc2c1C(=O)c1c(O)c3c(c(O)c1C2=O)CC(O)(C(=O)CO)CC3OC1CC(N)C(O)C(C)O1 (stereo unspecified)
inactive: viability, T/C (compound 0.0316 µM) 96.8% and 80.5% and 92.1% | viability, T/C (compound 0.1 µM) 67.9% and 52.2% and 54.5% | viability, T/C (compound 0.316 µM) 38.1% and 41.2% and 43.5% | viability, T/C (compound 1 µM) 19.5% and 22.3% and 19.1%
7.67% and 6.06% and 6.27%: viability, T/C (compound 3.16 µM)
active: viability, T/C (compound 10 µM) 4.91% and 3.92% and 4.93%
0.201 µM and 0.144 µM and 0.161 µM: IC50 (curve of compound)
